# Measurements from patent publication US20020137929A1, “1 - (3-heterocyclylphenyl) isothiourea, -isourea, -guanidine and -amidine herbicidal agents” (Intellectual Property Department, BASF Aktiengesellschaft, priority 1998, published 2002).
# How the values were obtained:
# ABUTH (Velvetleaf) [1] = experiment: Postemergence herbicidal evaluation; type: in vivo, Abutilon theophrasti; details: postemergence
# How it was run: (§1)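 Two-week-old seedlings sprayed with compound in 50/50 acetone/water plus 0.5% TWEEN 20, at about 0.0156 to 0.500 kg/ha, nozzle at 40 psi. Kept in greenhouse; rated visually 4-5 weeks after treatment on a 0-9 scale versus control, repeat tests averaged.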
# AMBEL (Ragweed, Common) = experiment: Postemergence herbicidal evaluation; type: in vivo, Ambrosia artemisifolia; details: postemergence
# How it was run: as §1
# ECHCG (Barnyardgrass) = experiment: Postemergence herbicidal evaluation; type: in vivo, Echinochloa crus-galli; details: postemergence
# How it was run: as §1
# SETVI (Foxtail, Green) [2] = experiment: Postemergence herbicidal evaluation; type: in vivo, Setaria viridis; details: postemergence
# How it was run: as §1
# [3] = system: GLXMAW (Soybean, Williams); experiment: Postemergence herbicidal evaluation; type: in vivo, Glycine max, (L.) Merr. cv Williams; details: postemergence
# How it was run: as §1
# ORYSAT (Rice, Tebonnet) = experiment: Postemergence herbicidal evaluation; type: in vivo, Oryza sativa, (L.) Tebonnet; details: postemergence
# How it was run: as §1
# [4] = system: TRZAWR (Wheat, Winter, cv Riband); experiment: Postemergence herbicidal evaluation; type: in vivo, Triticum aestivum; details: postemergence
# How it was run: as §1
# ABUTH (Velvetleaf) [5] = experiment: Preemergence herbicidal evaluation; type: in vivo, Abutilon theophrasti; details: rated 4-5 weeks after treatment
# How it was run: (§2)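 Scores use a 0–9 visual scale covering stand, vigor, malformation, size and chlorosis relative to controls, rated four to five weeks after treatment. Before emergence, soil-planted seeds were sprayed with compound in aqueous acetone at roughly 0.0156–0.500 kg/ha and held in the greenhouse.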
# CASOB (Sicklepod) = experiment: Preemergence herbicidal evaluation; type: in vivo, Cassia obtusifolia; details: rated 4-5 weeks after treatment
# How it was run: as §2
# SETVI (Foxtail, Green) [6] = experiment: Preemergence herbicidal evaluation; type: in vivo, Setaria viridis; details: rated 4-5 weeks after treatment
# How it was run: as §2
# [7] = system: SAGPY (Arrowhead (Pygmaea)); experiment: Preemergence weed control under flooded paddy conditions; type: in vivo, Sagittaria pygmaea; details: rated 3-4 weeks after treatment
# How it was run: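 First, seeds or propagules go into the top 0.5 cm of silt loam; next, water is held 1.5 to 3 cm over the soil; then compound (50/50 acetone/water) is pipetted into it at about 0.0313 to 0.500 kg/ha; finally plants are rated visually 0-9 after three to four weeks.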
# CYPIR (Rice Flatsedge) = experiment: Postemergence weed control under flooded paddy conditions; type: in vivo, Cyperus iria; details: postemergence weeds, rated 3 to 4 weeks after treatment
# How it was run: (§3)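 Flood-water application, about 0.0313–0.500 kg/ha a.i. in aqueous/acetone 50/50 v/v; water depth 1.5–3 cm throughout. Weeds 3–5 cm, rice 1.5–2.5 leaf. Greenhouse; 0–9 visual rating vs control at 3–4 wk.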
# [8] = system: SAGPY (Arrowhead (Pygmaea)); experiment: as above; type: in vivo, Sagittaria pygmaea; details: postemergence weeds, rated 3 to 4 weeks after treatment
# How it was run: as §3
compound,measurement,setting,value
"Cn1c(C(F)(F)F)cc(=O)n(-c2cc(N=C3SCC(=O)N3[C@H](Cc3ccccc3)C(=O)O)c(Cl)cc2F)c1=O [Compound 69, α-Benzyl-2-{{2-chloro-5-[3,6-dihydro-3-methyl-2,6-dioxo-4-(trifluoromethyl)-1(2H)-pyrimidinyl]-4-fluorophenyl}imino}-4-oxo-3-thiazolidineacetic acid, D-]",ABUTH herbicidal rating,ABUTH (Velvetleaf) [1]; rate 0.0158 kg/ha,9.0
same,ABUTH herbicidal rating,ABUTH (Velvetleaf) [1]; rate 0.0315 kg/ha,9.0
same,ABUTH herbicidal rating,ABUTH (Velvetleaf) [1]; rate 0.0630 kg/ha,9.0
same,AMBEL herbicidal rating,"AMBEL (Ragweed, Common); rate 0.0158 kg/ha",9.0
same,AMBEL herbicidal rating,"AMBEL (Ragweed, Common); rate 0.0315 kg/ha",9.0
same,AMBEL herbicidal rating,"AMBEL (Ragweed, Common); rate 0.0630 kg/ha",9.0
same,ECHCG herbicidal rating,ECHCG (Barnyardgrass); rate 0.0158 kg/ha,2.0
same,ECHCG herbicidal rating,ECHCG (Barnyardgrass); rate 0.0315 kg/ha,1.0
same,ECHCG herbicidal rating,ECHCG (Barnyardgrass); rate 0.0630 kg/ha,4.0
same,SETVI herbicidal rating,"SETVI (Foxtail, Green) [2]; rate 0.0158 kg/ha",3.0
same,SETVI herbicidal rating,"SETVI (Foxtail, Green) [2]; rate 0.0315 kg/ha",1.0
same,SETVI herbicidal rating,"SETVI (Foxtail, Green) [2]; rate 0.0630 kg/ha",1.0
same,GLXMAW herbicidal rating,[3]; rate 0.0158 kg/ha,5.5
same,GLXMAW herbicidal rating,[3]; rate 0.0315 kg/ha,6.0
same,GLXMAW herbicidal rating,[3]; rate 0.0630 kg/ha,6.0
same,ORYSAT herbicidal rating,"ORYSAT (Rice, Tebonnet); rate 0.0158 kg/ha",2.5
same,ORYSAT herbicidal rating,"ORYSAT (Rice, Tebonnet); rate 0.0315 kg/ha",3.0
same,ORYSAT herbicidal rating,"ORYSAT (Rice, Tebonnet); rate 0.0630 kg/ha",4.5
same,TRZAWR herbicidal rating,[4]; rate 0.0158 kg/ha,3.0
same,TRZAWR herbicidal rating,[4]; rate 0.0315 kg/ha,3.0
same,TRZAWR herbicidal rating,[4]; rate 0.0630 kg/ha,4.5
same,Preemergence herbicidal rating ABUTH,ABUTH (Velvetleaf) [5]; rate 0.0156 kg/ha,0.0
same,Preemergence herbicidal rating ABUTH,ABUTH (Velvetleaf) [5]; rate 0.0313 kg/ha,0.0
same,Preemergence herbicidal rating ABUTH,ABUTH (Velvetleaf) [5]; rate 0.0625 kg/ha,9.0
same,Preemergence herbicidal rating ABUTH,ABUTH (Velvetleaf) [5]; rate 0.1250 kg/ha,9.0
same,Preemergence herbicidal rating ABUTH,ABUTH (Velvetleaf) [5]; rate 0.2500 kg/ha,9.0
same,Preemergence herbicidal rating CASOB,CASOB (Sicklepod); rate 0.0156 kg/ha,0.0
same,Preemergence herbicidal rating CASOB,CASOB (Sicklepod); rate 0.0313 kg/ha,0.0
same,Preemergence herbicidal rating CASOB,CASOB (Sicklepod); rate 0.0625 kg/ha,0.0
same,Preemergence herbicidal rating CASOB,CASOB (Sicklepod); rate 0.1250 kg/ha,1.0
same,Preemergence herbicidal rating CASOB,CASOB (Sicklepod); rate 0.2500 kg/ha,5.0
same,Preemergence herbicidal rating SETVI,"SETVI (Foxtail, Green) [6]; rate 0.0156 kg/ha",0.0
same,Preemergence herbicidal rating SETVI,"SETVI (Foxtail, Green) [6]; rate 0.0313 kg/ha",0.0
same,Preemergence herbicidal rating SETVI,"SETVI (Foxtail, Green) [6]; rate 0.0625 kg/ha",0.0
same,Preemergence herbicidal rating SETVI,"SETVI (Foxtail, Green) [6]; rate 0.1250 kg/ha",4.0
same,Preemergence herbicidal rating SETVI,"SETVI (Foxtail, Green) [6]; rate 0.2500 kg/ha",7.0
same,SAGPY herbicidal effect rating,[7]; 0.0313 kg/ha,0.0
same,SAGPY herbicidal effect rating,[7]; 0.0625 kg/ha,0.0
same,SAGPY herbicidal effect rating,[7]; 0.1250 kg/ha,3.0
same,SAGPY herbicidal effect rating,[7]; 0.2500 kg/ha,3.0
same,Herbicidal rating CYPIR,CYPIR (Rice Flatsedge); Rate 0.0313 kg/ha,3.0
same,Herbicidal rating CYPIR,CYPIR (Rice Flatsedge); Rate 0.0625 kg/ha,3.0
same,Herbicidal rating CYPIR,CYPIR (Rice Flatsedge); Rate 0.1250 kg/ha,3.0
same,Herbicidal rating CYPIR,CYPIR (Rice Flatsedge); Rate 0.2500 kg/ha,3.0
same,Herbicidal rating SAGPY,[8]; Rate 0.0313 kg/ha,0.0
same,Herbicidal rating SAGPY,[8]; Rate 0.0625 kg/ha,0.0
same,Herbicidal rating SAGPY,[8]; Rate 0.1250 kg/ha,3.0
same,Herbicidal rating SAGPY,[8]; Rate 0.2500 kg/ha,3.0
